Laboratory results taken from PubChem BioAssay (NCI).
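Cells were grown in 96-well plates and exposed to each compound for 48 hours at five concentrations; endpoints were interpolated linearly between bracketing concentrations, or set to the highest concentration if not reached. At the TGI there is no net growth.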

How the values were obtained:
Experiment in all cases: inhibition of tumour cell growth, NCI panel, 48 h
MCF7 breast = tested on: MCF7 breast
MDA-MB-435 = tested on: MDA-MB-435
CAKI-1 renal = tested on: CAKI-1 renal
HCC-2998 colon = tested on: HCC-2998 colon
SK-OV-3 ovarian = tested on: SK-OV-3 ovarian
SW-620 colon = tested on: SW-620 colon
KM12 colon = tested on: KM12 colon
TK-10 renal = tested on: TK-10 renal
NCI-H522 lung = tested on: NCI-H522 lung
SF-268 CNS = tested on: SF-268 CNS
U251 CNS = tested on: U251 CNS
HCT-116 colon = tested on: HCT-116 colon
NCI-H460 lung = tested on: NCI-H460 lung
OVCAR-4 ovarian = tested on: OVCAR-4 ovarian
RXF 393 renal = tested on: RXF 393 renal
SK-MEL-28 melanoma = tested on: SK-MEL-28 melanoma
OVCAR-5 ovarian = tested on: OVCAR-5 ovarian
HOP-92 NSCLC = tested on: HOP-92 NSCLC
HL-60(TB) leukemia = tested on: HL-60(TB) leukemia
SK-MEL-5 melanoma = tested on: SK-MEL-5 melanoma
786-0 renal = tested on: 786-0 renal
LOX IMVI melanoma = tested on: LOX IMVI melanoma
HS 578T breast = tested on: HS 578T breast
SF-295 CNS = tested on: SF-295 CNS
OVCAR-3 ovarian = tested on: OVCAR-3 ovarian
OVCAR-8 ovarian = tested on: OVCAR-8 ovarian
SN12C renal = tested on: SN12C renal
SNB-19 CNS = tested on: SNB-19 CNS
MALME-3M melanoma = tested on: MALME-3M melanoma
MOLT-4 leukemia = tested on: MOLT-4 leukemia
NCI/ADR-RES ovarian = tested on: NCI/ADR-RES ovarian
CCRF-CEM leukemia = tested on: CCRF-CEM leukemia
DU-145 prostate = tested on: DU-145 prostate
RPMI-8226 leukemia = tested on: RPMI-8226 leukemia
PC-3 prostate = tested on: PC-3 prostate
A498 renal = tested on: A498 renal
MDA-MB-231 breast = tested on: MDA-MB-231 breast
BT-549 breast = tested on: BT-549 breast
IGROV1 ovarian = tested on: IGROV1 ovarian
UACC-257 melanoma = tested on: UACC-257 melanoma
SNB-75 CNS = tested on: SNB-75 CNS
UO-31 renal = tested on: UO-31 renal
A549 NSCLC = tested on: A549 NSCLC
COLO 205 colon = tested on: COLO 205 colon
EKVX NSCLC = tested on: EKVX NSCLC
SK-MEL-2 melanoma = tested on: SK-MEL-2 melanoma
HOP-62 NSCLC = tested on: HOP-62 NSCLC
K-562 leukemia = tested on: K-562 leukemia
M14 melanoma = tested on: M14 melanoma
HT29 colon = tested on: HT29 colon
ACHN renal = tested on: ACHN renal
NCI-H23 lung = tested on: NCI-H23 lung
HCT-15 colon = tested on: HCT-15 colon
UACC-62 melanoma = tested on: UACC-62 melanoma
T-47D breast = tested on: T-47D breast
MDA-N = tested on: MDA-N
NCI-H226 lung = tested on: NCI-H226 lung
SF-539 CNS = tested on: SF-539 CNS

## COc1cc(/C=C2\N=C(c3ccccc3)N(c3nc4ccc(Sc5ccccc5)cc4[nH]3)C2=O)ccc1O
MCF7 breast
  TGI: 50.7 µM
MDA-MB-435
  TGI: 23.2 µM
CAKI-1 renal
  TGI: > 100 µM
HCC-2998 colon
  TGI: 29.3 µM
SK-OV-3 ovarian
  TGI: > 100 µM
SW-620 colon
  TGI: > 100 µM
KM12 colon
  TGI: 57.9 µM
TK-10 renal
  TGI: 53.5 µM
NCI-H522 lung
  TGI: 48.3 µM
SF-268 CNS
  TGI: > 100 µM
U251 CNS
  TGI: 43.7 µM
HCT-116 colon
  TGI: 47.3 µM
NCI-H460 lung
  TGI: 50 µM
OVCAR-4 ovarian
  TGI: > 100 µM
RXF 393 renal
  TGI: > 100 µM
SK-MEL-28 melanoma
  TGI: 75.3 µM
OVCAR-5 ovarian
  TGI: > 100 µM
HOP-92 NSCLC
  TGI: > 100 µM
HL-60(TB) leukemia
  TGI: 31.2 µM
SK-MEL-5 melanoma
  TGI: 28.1 µM
786-0 renal
  TGI: 49 µM
LOX IMVI melanoma
  TGI: > 100 µM
HS 578T breast
  TGI: > 100 µM
SF-295 CNS
  TGI: 94.7 µM
OVCAR-3 ovarian
  TGI: > 100 µM
OVCAR-8 ovarian
  TGI: > 100 µM
SN12C renal
  TGI: 97.5 µM
SNB-19 CNS
  TGI: > 100 µM
MALME-3M melanoma
  TGI: 44.1 µM
MOLT-4 leukemia
  TGI: 69.4 µM
NCI/ADR-RES ovarian
  TGI: 61 µM
CCRF-CEM leukemia
  TGI: 55.3 µM
DU-145 prostate
  TGI: > 100 µM
RPMI-8226 leukemia
  TGI: 47.8 µM
PC-3 prostate
  TGI: > 100 µM
A498 renal
  TGI: 77.1 µM
MDA-MB-231 breast
  TGI: 60.4 µM
BT-549 breast
  TGI: 53.7 µM
IGROV1 ovarian
  TGI: > 100 µM
UACC-257 melanoma
  TGI: 47.1 µM
SNB-75 CNS
  TGI: > 100 µM
UO-31 renal
  TGI: > 100 µM
A549 NSCLC
  TGI: > 100 µM
COLO 205 colon
  TGI: 32.7 µM
EKVX NSCLC
  TGI: > 100 µM
SK-MEL-2 melanoma
  TGI: 30.6 µM
HOP-62 NSCLC
  TGI: > 100 µM
K-562 leukemia
  TGI: 37.3 µM
M14 melanoma
  TGI: 33.6 µM
HT29 colon
  TGI: 38.7 µM
ACHN renal
  TGI: 86 µM
NCI-H23 lung
  TGI: > 100 µM
HCT-15 colon
  TGI: > 100 µM
UACC-62 melanoma
  TGI: 53.3 µM
T-47D breast
  TGI: > 100 µM
MDA-N
  TGI: 28.5 µM

## CCOC(=O)/C=C\c1c(Cl)n(-c2ccccc2)c(=O)n(-c2ccccc2)c1=O
MCF7 breast
  TGI: 46 µM
MDA-MB-435
  TGI: 44.8 µM
CAKI-1 renal
  TGI: 35.7 µM
HCC-2998 colon
  TGI: 33.2 µM
SK-OV-3 ovarian
  TGI: 37.2 µM
SW-620 colon
  TGI: 61.6 µM
KM12 colon
  TGI: 35.8 µM
TK-10 renal
  TGI: 32.3 µM
NCI-H522 lung
  TGI: 46.5 µM
SF-268 CNS
  TGI: 44.7 µM
U251 CNS
  TGI: > 100 µM
HCT-116 colon
  TGI: 54.9 µM
NCI-H460 lung
  TGI: 34.1 µM
OVCAR-4 ovarian
  TGI: > 100 µM
RXF 393 renal
  TGI: 32.9 µM
SK-MEL-28 melanoma
  TGI: 41.1 µM
OVCAR-5 ovarian
  TGI: 36.9 µM
HOP-92 NSCLC
  TGI: 36 µM
HL-60(TB) leukemia
  TGI: 23.4 µM
786-0 renal
  TGI: 39.6 µM
LOX IMVI melanoma
  TGI: 50.6 µM
HS 578T breast
  TGI: 65.2 µM
SF-295 CNS
  TGI: 40.2 µM
OVCAR-3 ovarian
  TGI: 36.1 µM
NCI-H226 lung
  TGI: 50.8 µM
OVCAR-8 ovarian
  TGI: 34.7 µM
SN12C renal
  TGI: 36.4 µM
SNB-19 CNS
  TGI: 31.6 µM
MALME-3M melanoma
  TGI: 44 µM
MOLT-4 leukemia
  TGI: 87.2 µM
NCI/ADR-RES ovarian
  TGI: 72.7 µM
CCRF-CEM leukemia
  TGI: 58.7 µM
DU-145 prostate
  TGI: 34.9 µM
PC-3 prostate
  TGI: 33.3 µM
A498 renal
  TGI: 50.8 µM
MDA-MB-231 breast
  TGI: 36.3 µM
BT-549 breast
  TGI: 36.1 µM
IGROV1 ovarian
  TGI: 36.2 µM
UACC-257 melanoma
  TGI: 35.5 µM
SNB-75 CNS
  TGI: 29.2 µM
UO-31 renal
  TGI: 33.2 µM
A549 NSCLC
  TGI: 60.1 µM
COLO 205 colon
  TGI: 34.6 µM
EKVX NSCLC
  TGI: 48.5 µM
SK-MEL-2 melanoma
  TGI: 33.5 µM
HOP-62 NSCLC
  TGI: 40 µM
M14 melanoma
  TGI: 33.7 µM
HT29 colon
  TGI: 38.4 µM
ACHN renal
  TGI: 35.1 µM
NCI-H23 lung
  TGI: 41.7 µM
HCT-15 colon
  TGI: 39.7 µM
UACC-62 melanoma
  TGI: 34.8 µM
T-47D breast
  TGI: 42.2 µM
MDA-N
  TGI: 31.8 µM
SF-539 CNS
  TGI: 31.8 µM

## CC1=NN(C(=O)CC(=O)N(C(=O)c2ccccc2)c2ccc(Cl)cc2)C(=O)C1N=Nc1ccc([N+](=O)[O-])cc1 (stereo not drawn)
MCF7 breast
  TGI: > 10 µM
MDA-MB-435
  TGI: > 10 µM
CAKI-1 renal
  TGI: > 10 µM
HCC-2998 colon
  TGI: > 10 µM
SK-OV-3 ovarian
  TGI: > 10 µM
SW-620 colon
  TGI: > 10 µM
KM12 colon
  TGI: > 10 µM
TK-10 renal
  TGI: > 10 µM
NCI-H522 lung
  TGI: > 10 µM
SF-268 CNS
  TGI: > 10 µM
U251 CNS
  TGI: > 10 µM
HCT-116 colon
  TGI: > 10 µM
NCI-H460 lung
  TGI: > 10 µM
OVCAR-4 ovarian
  TGI: > 10 µM
RXF 393 renal
  TGI: > 10 µM
SK-MEL-28 melanoma
  TGI: > 10 µM
OVCAR-5 ovarian
  TGI: > 10 µM
HOP-92 NSCLC
  TGI: > 10 µM
HL-60(TB) leukemia
  TGI: > 10 µM
SK-MEL-5 melanoma
  TGI: > 10 µM
786-0 renal
  TGI: > 10 µM
LOX IMVI melanoma
  TGI: > 10 µM
HS 578T breast
  TGI: > 10 µM
SF-295 CNS
  TGI: > 10 µM
OVCAR-3 ovarian
  TGI: > 10 µM
NCI-H226 lung
  TGI: > 10 µM
OVCAR-8 ovarian
  TGI: > 10 µM
SN12C renal
  TGI: > 10 µM
SNB-19 CNS
  TGI: > 10 µM
MALME-3M melanoma
  TGI: > 10 µM
MOLT-4 leukemia
  TGI: > 10 µM
NCI/ADR-RES ovarian
  TGI: > 10 µM
CCRF-CEM leukemia
  TGI: > 10 µM
DU-145 prostate
  TGI: > 10 µM
RPMI-8226 leukemia
  TGI: > 10 µM
PC-3 prostate
  TGI: > 10 µM
A498 renal
  TGI: > 10 µM
MDA-MB-231 breast
  TGI: > 10 µM
BT-549 breast
  TGI: > 10 µM
IGROV1 ovarian
  TGI: > 10 µM
UACC-257 melanoma
  TGI: > 10 µM
SNB-75 CNS
  TGI: > 10 µM
UO-31 renal
  TGI: > 10 µM
A549 NSCLC
  TGI: > 10 µM
COLO 205 colon
  TGI: > 10 µM
EKVX NSCLC
  TGI: > 10 µM
SK-MEL-2 melanoma
  TGI: > 10 µM
HOP-62 NSCLC
  TGI: > 10 µM
K-562 leukemia
  TGI: > 10 µM
HT29 colon
  TGI: > 10 µM
ACHN renal
  TGI: > 10 µM
NCI-H23 lung
  TGI: > 10 µM
HCT-15 colon
  TGI: > 10 µM
UACC-62 melanoma
  TGI: > 10 µM
T-47D breast
  TGI: > 10 µM
MDA-N
  TGI: > 10 µM
SF-539 CNS
  TGI: > 10 µM
